Test results from patent US6747062B2, “Regulation of wound healing by nitric oxide” (New York Society for the Ruptured and Crippled Maintaining …, priority 1994, dated 2004).

How the values were obtained:
[1] = Body and muscle weight of rats fed the chemicals; assay type: in vivo, rat; conditions: for increase of weight: over 22 days, same dose
Procedure: (§1) In the following NOS inhibition experiments, animals were fed the indicated chemicals at 1 mg/ml in their drinking water ad libitum for four days prior to surgical division of the right Achilles tendon and throughout the post-operative experimental period, with the exception of experiment (c)*, where the drugs were given from the immediate post-operative period:
(§2) (d) 3 weeks D-NAME (n=8), L-NAME (n=8), L-arginine (n=8), walking speed assessments at days 1,4,8,11,15,18,22, biomechanical assessment, muscle weight and autopsy at day 22.
All animals were weighed prior to surgery, at weekly intervals, and at sacrifice. After sacrifice the right triceps of rats fed D-NAME (n=8), L-NAME (n=8) or L-arginine (n=8) for three weeks was harvested, weighed for wet weight, lyophilized for dry weight and the water content calculated.

[2] = Other systemic effects and post mortem examination; assay type: in vivo, rat; conditions: for systemic changes (palsies, coat, dyspnoea, death, post mortem lesions): 3 weeks feeding
Procedure: (§3) Rat model system: The rat achilles tendon model is used to test model compounds for biological activity i.e. the ability to promote or inhibit wound healing in vivo. As described in Example 1 below, one Achilles tendon in each rat is transsected surgically, and allowed to heal for periods ranging from 6 hours to 14 days. At each time point, the degree of healing is first assessed by measuring walking speed. The animals are then sacrificed and the tendons are excised and subjected to biomechanical testing and morphological and immunochemical analysis. NOS activity is measured in the excised tendons as above. Finally, body and muscle weight are monitored, and systemic and local toxicity are assessed by macroscopic and microscopic post-mortem examination. It will be understood by a skilled practitioner that any small mammal suitable for testing may be used, including rats, mice, rabbits, guinea pigs, and the like.
as §1, §2

[3] = tested on: surgically divided Achilles tendon; assay: Rat Achilles tendon healing model with nitric oxide synthase inhibition (morphology, biomechanics); assay type: in vivo; conditions: for distance separating the cut ends of the healing tendon (5-8 mm): 1 mg/ml in drinking water
Procedure: as §3, §1
(a) 1 week D-NAME (n=9) vs L-NAME (n=11); walking speed and biomechanical analyses at day 7. […]
The rats were housed in beta-chip-lined plastic cages, two animals per cage, with a 12-hour light, 12 hour dark cycle in an animal care facility and fed rat chow and water ad libitum. Anaesthesia was achieved by intraperitoneal injection of 80 mg/kg ketamine (Park Davis, Morris Plains, N.J.) and 5 mg/kg xylazine (Miles Inc, Shawnee Mission, Kans.). All surgical procedures were performed under sterile conditions with the aid of 2.5x microsurgical loops. The surgical procedure was similar to that previously outlined. A 3 cm midline incision was made over the right Achilles tendon and the Achilles tendon and plantaris were isolated from the surrounding fascia. The underlying fascia was disrupted by spreading with a pair of small straight scissors. The tendinous portion of the plantaris was removed and the Achilles tendon was divided cleanly in its mid-substance, 0.5 cm from its calcaneal insertion with a scalpel. The skin was then sutured with two simple nylon sutures of 5-0 ethilon monofilament nylon on a PC-1 cutting needle (Ethicon Inc, N.J.). No operation was performed on the left, uninjured, hind limb. No cast or dressings were applied and the animals were unrestricted during the healing phase. The animals were sacrificed by CO2 inhalation.
One hundred and fifty two harvested lower limbs were placed in phosphate buffered saline (PBS), frozen and stored at −70° C. for an average of seven days prior to testing. On the day prior to testing the specimens were thawed. All extraneous soft and hard tissues were removed by blunt and sharp dissection from the Achilles tendon, formerly intramuscular tendinous fibers and the hind foot. Area measurements of the uninjured and sham operated tendons were made with an area micrometer (Mitutoyo, Tokyo, Japan). Length measurements were made with a 0.02 mm calibrated caliper (Draper, Japan). The formerly intramuscular tendinous fibers were then secured between two strips of white labelling tape with Thick Gel Super Glue® (Super Glue Corporation, N.Y.) such that the distal edge of the tape was 1.0 cm from the calcaneal insertion. The calcaneus was fixed at 45° in an adjustable rubber-gripped clamp (Panavise, Sparks, Nev.). Throughout the procedure care was taken to ensure that neither the Super Glue® nor the self curing plastic contaminated the tendon proper and the specimens were kept moist by application of PBS. Mechanical testing was carried out using a MTS 810 material test system (MTS Systems Corporation, PN). Each specimen underwent a constant velocity ramp to failure test at 1 cm/sec (≈100%/sec). […]

[4] = tested on: cultured bovine chondrocytes; assay: NO2- release from cultured bovine chondrocytes (Greiss reaction); assay type: cell-based; conditions: for release of NO2-: endotoxin at 1 μg/ml, no constitutive release
[5] = Walking speed assessment in a confined walkway; assay type: in vivo, rat
Procedure: as §1
The animals were tested in a confined walkway with a dark shelter at the end. Each rat was held by its chest at the start of the walkway and then allowed to walk/run to the dark shelter at the end of the walkway. The time taken for the rat to cover the first half (21.5 cm) and the total length (43 cm) of the walkway was measured by individuals blinded to the treatment groups.

[6] = fed from the immediate post-operative period, day 15

## N=C(N)NCCC[C@H](N)C(=O)O [L-arginine]
[1]; day 22
  effect on muscle weight: no effect
[1]
  increase of weight: 30%
[2]
  systemic changes (palsies, coat, dyspnoea, death, post mortem lesions): failed to display any of the above changes
[3]
  distance separating the cut ends of the healing tendon (5-8 mm): did not change

## O=C(O)CN(CCOCCOCCN(CC(=O)O)CC(=O)O)CC(=O)O [EGTA]
[4]
  inhibition of endotoxin-induced NO2- production: not inhibited

## COC(=O)[C@H](N)CCCN=C(N)N[N+](=O)[O-] [D-NAME, Nw-nitro-D-arginine methyl ester]
[1]
  increase of weight: 30%
[2]
  systemic changes (palsies, coat, dyspnoea, death, post mortem lesions): failed to display any of the above changes

## COC(=O)[C@@H](N)CCCNC(=N)N[N+](=O)[O-] [L-NAME, Nw-nitro-L-arginine methyl ester]
[1]; 1 mg/ml in drinking water
  body weight over the first 15 days of treatment: either failed to gain weight or lost weight
[1]; by day 22, p<0.001
  lighter than initial preoperative weight: 30%
[1]; day 22, p<0.01
  loss in dry muscle weight (right triceps): 40%
  loss in wet muscle weight (right triceps): 30%
[1]; [6]
  systemic change: weight: weight loss
[4]
  inhibition of endotoxin-induced NO2- production: completely inhibited
[5]; after day 11
  behavior and walking speed: progressively quieter, slower
[5]; [6]
  systemic change: walking speed: loss of walking speed
[5]; first week of treatment
  behavior or walking speed: no changes
[2]; day 21, group of eight rats
  rats that died: Two
[2]; day 22, all rats
  post mortem examination findings: scant body fat, empty small intestines, myocardial lesions consistent with infarction and granular kidneys
[2]; from day 15
  rats that developed severe dyspnoea: ⅝
[2]; from day 15, all rats
  coat and peri-orbital changes: lost coat texture and developed peri-orbital rubor
[2]; from day 15, group of eight rats
  rats that developed motor palsies of upper or lower limbs: Four out of the eight
[3]
  distance separating the cut ends of the healing tendon (5-8 mm): did not change
[3]; L-NAME versus D-NAME fed rats
  microscopic appearance of the healing tissue (light microscopy): no subjective differences
[3]; day 7
  failure load of uninjured Achilles tendon constructs: unaffected
[3]; day 7, given orally 1 mg/ml in drinking water from four days prior to surgery, p<0.01 vs D-NAME
  inhibition of cross-sectional area of healing Achilles tendon: 30%
[3]; day 7, p<0.01
  reduction in failure load on the formerly divided side: 24%
[3]; day 15, given orally from four days prior to surgery, p<0.001
  inhibition of cross-sectional area of healing Achilles tendon: 50%
[3]; day 22, given orally from four days prior to surgery, p<0.05
  inhibition of cross-sectional area of healing Achilles tendon: 17%
[3]; [6]
  failure load: failed to show any changes
  tendon cross-sectional area: failed to show any changes
[3]; rat, in vivo
  toe displacement, maximum displacement, stiffness, energy, modulus or maximum stress of surgically divided or uninjured Achilles constructs: did not affect

## IL-1β: inflammatory mediator
[4]
  release of NO2-: 100 nmol NO2^−/106 cells/24 hours

## TNF-α
[4]
  release of NO2-: 100 nmol NO2^−/106 cells/24 hours
